Results from US10206937B2, “Boronic acid derivatives and therapeutic uses thereof” (Qpex Biopharma, Inc., priority 2014, dated 2019).

System: strains of Enterobacteriaceae producing various carbapenemases (class A, D and B; 104 strains)
Assay: Antibiotics potentiation by Compound 27 (MIC; meropenem, doripenem, ertapenem, cefepime)
Format: cell-based
Conditions: + 27 = with Compound 27 at fixed 4 μg/ml

COc1ccc2c(c1C(=O)O)OB(O)C(Sc1nnc(N)s1)C2 (centres unmarked) [C + 27]
MIC (strain CF1012 Citrobacter freundii (KPC-2)): X (MIC of less than 1 μg/mL)
MIC (strain CF1021 Citrobacter freundii (CMY-type; VIM-1)): X (MIC of less than 1 μg/mL)
MIC (strain CF1022 Citrobacter freundii (SHV-12(2be), TEM-OSBL(2b); IMP-8)): X (MIC of less than 1 μg/mL)
MIC (strain CF1023 Citrobacter freundii (SHV-12(2be), TEM-OSBL(2b); CTX-M-3; CMY-34; NDM-1)): X (MIC of less than 1 μg/mL)
MIC (strain CL1080 Enterobacter cloacae (IMP-1)): Y (MIC of 1 μg/mL to 10 μg/mL)
MIC (strain EA1019 Enterobacter aerogenes (SHV-5, VIM-1)): Y (MIC of 1 μg/mL to 10 μg/mL)
MIC (strain EC1007 Escherichia coli (KPC-3)): X (MIC of less than 1 μg/mL)
MIC (strain EC1061 Escherichia coli (NDM-1, CMY-6)): X (MIC of less than 1 μg/mL)
MIC (strain EC1062 Escherichia coli (OXA-48, CTX-M-15)): X (MIC of less than 1 μg/mL)
MIC (strain EC1064 Escherichia coli (NDM-1, CMY-6, CTX-M-15)): Z (MIC of greater than 10 μg/mL)
MIC (strain EC1065 Escherichia coli (IMP-1)): X (MIC of less than 1 μg/mL)
MIC (strain EC1068 Escherichia coli (VIM-1)): Y (MIC of 1 μg/mL to 10 μg/mL)
MIC (strain EC1069 Escherichia coli (CTX-M-27; NDM-1)): X (MIC of less than 1 μg/mL)
MIC (strain EC1070 Escherichia coli (TEM-OSBL(2b); CMY-42; NDM-5)): X (MIC of less than 1 μg/mL)
MIC (strain EC1072 Escherichia coli (CTX-M-3; NDM-1)): Y (MIC of 1 μg/mL to 10 μg/mL)
MIC (strain ECL1004 Enterobacter cloacae (NMC-A)): X (MIC of less than 1 μg/mL)
MIC (strain ECL1026 Enterobacter cloacae (KPC-2, TEM-1)): X (MIC of less than 1 μg/mL)
MIC (strain ECL1036 Enterobacter cloacae (KPC-3, TEM-1)): X (MIC of less than 1 μg/mL)
MIC (strain ECL1045 Enterobacter cloacae (VIM-1)): Y (MIC of 1 μg/mL to 10 μg/mL)
MIC (strain ECL1055 Enterobacter cloacae (KPC-3, TEM)): X (MIC of less than 1 μg/mL)
MIC (strain ECL1057 Enterobacter cloacae (NDM-1, TEM-1, CTX-M-15)): Z (MIC of greater than 10 μg/mL)
MIC (strain ECL1058 Enterobacter cloacae (KPC-3, SHV-11, TEM-1)): X (MIC of less than 1 μg/mL)
MIC (strain ECL1059 Enterobacter cloacae (KPC-3, SHV-12, TEM-1)): X (MIC of less than 1 μg/mL)
MIC (strain ECL1061 Enterobacter cloacae (KPC-3, Hyper AmpC expression)): Y (MIC of 1 μg/mL to 10 μg/mL)
MIC (strain ECL1082 Enterobacter cloacae (VIM-1)): Y (MIC of 1 μg/mL to 10 μg/mL)
MIC (strain ECL1084 Enterobacter cloacae (CTX-M-15; ACT-16; NDM-1)): X (MIC of less than 1 μg/mL)
MIC (strain ECL1085 Enterobacter cloacae (SHV-31(2be), TEM-1(2b); CTX-M-15; NDM-1)): X (MIC of less than 1 μg/mL)
MIC (strain ECL1086 Enterobacter cloacae (VIM-31, OXA-48(c))): Y (MIC of 1 μg/mL to 10 μg/mL)
MIC (strain ECL1087 Enterobacter cloacae (VIM-1)): Y (MIC of 1 μg/mL to 10 μg/mL)
MIC (strain ECL1088 Enterobacter cloacae (TEM-1(2b); CTX-M-14; ACT-type; VIM-1)): Y (MIC of 1 μg/mL to 10 μg/mL)
MIC (strain ECL1089 Enterobacter cloacae (ACT-type; IMP-1)): Z (MIC of greater than 10 μg/mL)
MIC (strain ECL1090 Enterobacter cloacae (TEM-1(2b); CTX-M-22; ACT-type; IMP-8)): Y (MIC of 1 μg/mL to 10 μg/mL)
MIC (strain ECL1091 Enterobacter cloacae (VIM-1)): Y (MIC of 1 μg/mL to 10 μg/mL)
MIC (strain ECL1092 Enterobacter cloacae (TEM-OSBL(2b); ACT-32; VIM-1)): X (MIC of less than 1 μg/mL)
MIC (strain ECL1093 Enterobacter cloacae (TEM-OSBL(2b); ACT-32; VIM-1)): X (MIC of less than 1 μg/mL)
MIC (strain ECL1094 Enterobacter cloacae (VIM-1)): Y (MIC of 1 μg/mL to 10 μg/mL)
MIC (strain ECL1096 Enterobacter cloacae (CMY-4, VIM-4, OXA-48(c))): X (MIC of less than 1 μg/mL)
MIC (strain ECL1097 Enterobacter cloacae (SHV-31(2be), TEM-OSBL(2b); CTX-M-15; ACT-31; NDM-1)): X (MIC of less than 1 μg/mL)
MIC (strain ECL1098 Enterobacter cloacae (TEM-OSBL(2b); DHA-1; ACT-16; NDM-1)): X (MIC of less than 1 μg/mL)
MIC (strain KP1001 Klebsiella pneumoniae (KPC TEM SHV)): Y (MIC of 1 μg/mL to 10 μg/mL)
MIC (strain KP1002 Klebsiella pneumoniae (KPC TEM SHV)): X (MIC of less than 1 μg/mL)
MIC (strain KP1003 Klebsiella pneumoniae (KPC TEM SHV)): X (MIC of less than 1 μg/mL)
MIC (strain KP1004 Klebsiella pneumoniae (KPC-2, TEM-1, SHV-11)): X (MIC of less than 1 μg/mL)
MIC (strain KP1008 Klebsiella pneumoniae (KPC-2)): X (MIC of less than 1 μg/mL)
MIC (strain KP1014 Klebsiella pneumoniae (VIM-1, TEM, SHV)): X (MIC of less than 1 μg/mL)
MIC (strain KP1054 Klebsiella pneumoniae (VIM-1, SHV-11)): X (MIC of less than 1 μg/mL)
MIC (strain KP1059 Klebsiella pneumoniae (VIM-1, SHV-11)): Y (MIC of 1 μg/mL to 10 μg/mL)
MIC (strain KP1061 Klebsiella pneumoniae (KPC-3, SHV-11, TEM-1)): X (MIC of less than 1 μg/mL)
MIC (strain KP1064 Klebsiella pneumoniae (KPC-2, SHV-11, TEM-1)): Y (MIC of 1 μg/mL to 10 μg/mL)
MIC (strain KP1065 Klebsiella pneumoniae (VIM-1, SHV-11)): X (MIC of less than 1 μg/mL)
MIC (strain KP1070 Klebsiella pneumoniae (KPC-2, SHV-11, TEM-1)): X (MIC of less than 1 μg/mL)
MIC (strain KP1074 Klebsiella pneumoniae (KPC-3, SHV-11, TEM)): Z (MIC of greater than 10 μg/mL)
MIC (strain KP1081 Klebsiella pneumoniae (NDM-1, TEM-1, SHV-11, CMY-6, CTX-M-15)): Y (MIC of 1 μg/mL to 10 μg/mL)
MIC (strain KP1082 Klebsiella pneumoniae (KPC-2, SHV-1)): X (MIC of less than 1 μg/mL)
MIC (strain KP1083 Klebsiella pneumoniae (KPC-3, SHV-1, TEM-1)): X (MIC of less than 1 μg/mL)
MIC (strain KP1084 Klebsiella pneumoniae (KPC-3, SHV-11, TEM-1)): Y (MIC of 1 μg/mL to 10 μg/mL)
MIC (strain KP1086 Klebsiella pneumoniae (OXA-48, CTX-M-15, TEM, SHV)): Z (MIC of greater than 10 μg/mL)
MIC (strain KP1087 Klebsiella pneumoniae (KPC-2, CTX-M-15, SHV-11, TEM-1)): Y (MIC of 1 μg/mL to 10 μg/mL)
MIC (strain KP1088 Klebsiella pneumoniae (KPC-3, SHV-11, TEM-1)): X (MIC of less than 1 μg/mL)
MIC (strain KP1089 Klebsiella pneumonias (OXA-181, CTX-M-15, TEM, SHV)): Y (MIC of 1 μg/mL to 10 μg/mL)
MIC (strain KP1095 Klebsiella pneumoniae (KPC-2 TEM-1 SHV-1)): X (MIC of less than 1 μg/mL)
MIC (strain KP1096 Klebsiella pneumoniae (KPC-2 TEM-181 SHV-11)): X (MIC of less than 1 μg/mL)
MIC (strain KP1097 Klebsiella pneumonias (IMP-1)): X (MIC of less than 1 μg/mL)
MIC (strain KP1098 Klebsiella pneumoniae (IMP-26)): Y (MIC of 1 μg/mL to 10 μg/mL)
MIC (strain KP1104 Klebsiella pneumoniae (KPC TEM)): X (MIC of less than 1 μg/mL)
MIC (strain KP1105 Klebsiella pneumoniae (KPC TEM SHV)): X (MIC of less than 1 μg/mL)
MIC (strain KP1159 Klebsiella pneumoniae (SHV-1(2b); CTX-M-15; IMP-4)): X (MIC of less than 1 μg/mL)
MIC (strain KP1160 Klebsiella pneumoniae (SHV-28(2be); CTX-M-15; IMP-26)): X (MIC of less than 1 μg/mL)
MIC (strain KP1161 Klebsiella pneumoniae (NDM-1)): X (MIC of less than 1 μg/mL)
MIC (strain KP1164 Klebsiella pneumoniae (SHV-12(2be); VIM-1)): X (MIC of less than 1 μg/mL)
MIC (strain KP1165 Klebsiella pneumoniae (SHV-11(2b); CTX-M-15; VIM-27)): Z (MIC of greater than 10 μg/mL)
MIC (strain KP1166 Klebsiella pneumoniae (SHV-5(2be); VIM-26)): Z (MIC of greater than 10 μg/mL)
MIC (strain KP1167 Klebsiella pneumoniae (SHV-12(2be); VIM-1)): X (MIC of less than 1 μg/mL)
MIC (strain KP1169 Klebsiella pneumoniae (SHV-11(2b); VIM-1)): X (MIC of less than 1 μg/mL)
MIC (strain KP1170 Klebsiella pneumoniae (SHV-11(2b); CTX-M-15; NDM-1)): X (MIC of less than 1 μg/mL)
MIC (strain KP1172 Klebsiella pneumoniae (SHV-31(2be); DHA-1; VIM-1)): X (MIC of less than 1 μg/mL)
MIC (strain KP1173 Klebsiella pneumoniae (TEM-33(2br); CTX-M-15; IMP-1)): X (MIC of less than 1 μg/mL)
MIC (strain KP1174 Klebsiella pneumoniae (CTX-M-14; IMP-1)): X (MIC of less than 1 μg/mL)
MIC (strain KP1175 Klebsiella pneumoniae (SHV-OSBL(2b); VIM-1)): X (MIC of less than 1 μg/mL)
MIC (strain KP1177 Klebsiella pneumoniae (SHV-OSBL(2b), TEM-OSBL(2b); CTX-M-15; NDM-1)): X (MIC of less than 1 μg/mL)
MIC (strain KP1178 Klebsiella pneumoniae (SHV-OSBL(2b;) TEM-OSBL(2b); CTX-M-15; NDM-1)): X (MIC of less than 1 μg/mL)
MIC (strain KP1179 Klebsiella pneumoniae (SHV-12(2be), TEM-OSBL(2b); CTX-M-15; NDM-7)): X (MIC of less than 1 μg/mL)
MIC (strain KP1180 Klebsiella pneumoniae (SHV-OSBL(2b), TEM-OSBL(2b); CTX-M-15; DHA-1; IMP-26)): X (MIC of less than 1 μg/mL)
MIC (strain KP1181 Klebsiella pneumoniae (SHV-OSBL(2b); CTX-M-15; IMP-26)): X (MIC of less than 1 μg/mL)
MIC (strain KP1183 Klebsiella pneumoniae (SHV-OSBL(2b), TEM-OSBL(2b); CTX-M-15; NDM-1)): X (MIC of less than 1 μg/mL)
MIC (strain KP1184 Klebsiella pneumoniae (SHV-OSBL(2b); IMP-1)): X (MIC of less than 1 μg/mL)
MIC (strain KP1185 Klebsiella pneumoniae (SHV-OSBL(2b), TEM-OSBL(2b); IMP-4)): Y (MIC of 1 μg/mL to 10 μg/mL)
MIC (strain KP1186 Klebsiella pneumoniae (CTX-M-15; NDM-1)): Y (MIC of 1 μg/mL to 10 μg/mL)
MIC (strain KP1187 Klebsiella pneumoniae (SHV-55(2be), TEM-OSBL(2b); CTX-M-15; NDM-1)): X (MIC of less than 1 μg/mL)
MIC (strain KP1188 Klebsiella pneumoniae (SHV-OSBL(2b); CTX-M-15; NDM-1)): Y (MIC of 1 μg/mL to 10 μg/mL)
MIC (strain KP1189 Klebsiella pneumoniae (TEM-OSBL(2b); CTX-M-15; CTX-M-27; NDM-1)): X (MIC of less than 1 μg/mL)
MIC (strain KPM1123 Klebsiella pneumoniae (KPC-2 TEM SHV)): X (MIC of less than 1 μg/mL)
MIC (strain KPM1202 Klebsiella pneumoniae (KPC SHV TEM)): X (MIC of less than 1 μg/mL)
MIC (strain KPM1203 Klebsiella pneumoniae (KPC SHV TEM)): X (MIC of less than 1 μg/mL)
MIC (strain KPM1344 Klebsiella pneumoniae (VIM-1)): X (MIC of less than 1 μg/mL)
MIC (strain KPM1345 Klebsiella pneumoniae (VIM-1 SHV)): X (MIC of less than 1 μg/mL)
MIC (strain KPM1347 Klebsiella pneumoniae (NDM-1 SHV CTX-M-15)): X (MIC of less than 1 μg/mL)
MIC (strain KX1017 Klebsiella oxytoca (KPC-2, OXA-2, SHV-30)): X (MIC of less than 1 μg/mL)
MIC (strain KX1018 Klebsiella oxytoca (KPC-2, SHV-40, OXY-1)): X (MIC of less than 1 μg/mL)
MIC (strain KX1019 Klebsiella oxytoca (KPC-2, OXA-2)): X (MIC of less than 1 μg/mL)
MIC (strain PM1024 Proteus mirabilis (TEM-1(2b); CMY-16; VIM-1)): X (MIC of less than 1 μg/mL)
MIC (strain PM1026 Proteus mirabilis (DHA-1; IMP-26)): X (MIC of less than 1 μg/mL)
MIC (strain PM1027 Proteus mirabilis (VIM-5)): X (MIC of less than 1 μg/mL)
MIC (strain SM1023 Serratia marcescens (VIM-4)): Y (MIC of 1 μg/mL to 10 μg/mL)
